What is called EC50 is the midpoint of the concentration-response curve.

For 50 molecules, EC50 results are on record in patent US7718647B2, “Substituted azepine derivatives as serotonin receptor modulators” (Athersys, Inc., priority 2004, dated 2010).

A value given as a limit tells only on which side of the number the result lay.

The test deals with T1, human 5HT2c receptor (Homo sapiens, UniProt P28335, I156V/I160V, form not given).
T1 sequence (P28335 1-458 I156V/N158S/I160V): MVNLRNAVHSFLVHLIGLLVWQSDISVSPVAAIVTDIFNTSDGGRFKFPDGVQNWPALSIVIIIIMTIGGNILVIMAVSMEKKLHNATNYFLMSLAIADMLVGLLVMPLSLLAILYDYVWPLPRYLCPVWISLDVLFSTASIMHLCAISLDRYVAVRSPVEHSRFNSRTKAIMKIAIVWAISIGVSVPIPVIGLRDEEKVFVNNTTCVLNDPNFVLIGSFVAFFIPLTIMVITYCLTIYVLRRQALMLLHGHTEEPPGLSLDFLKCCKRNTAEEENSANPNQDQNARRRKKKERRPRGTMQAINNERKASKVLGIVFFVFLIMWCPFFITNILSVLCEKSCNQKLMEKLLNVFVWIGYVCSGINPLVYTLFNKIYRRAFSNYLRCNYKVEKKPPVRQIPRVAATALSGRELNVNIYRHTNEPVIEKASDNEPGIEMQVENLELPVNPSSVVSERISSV
As to the kind of experiment: Calcium mobilization (FLIPR) 5HT2c receptor agonist assay in HEK 293 EBNA cells. The format is cell-based. The conditions noted are these: agonist-stimulated calcium release, HEK 293 EBNA cells expressing human 5HT2c receptor, read-out: 5-HT2c EC50 (hVSV).

Take `CC1CNCCc2cc(Cl)sc21` (racemic) [Example 31, (R,S)-2-Chloro-8-methyl-5,6,7,8-tetrahydro-4H-thieno[2,3-d]azepine]: the EC50 was below 100 nM.

As for `COC1CNCCc2sc(Br)cc21` (racemic) [Example 33, (R,S)-2-Bromo-4-methoxy-5,6,7,8-tetrahydro-4H-thieno[2,3-d]azepine], the EC50 is below 1000 nM.

Take `CCC1CNCCc2sc(Br)cc21` (racemic) [Example 35, (R,S)-2-Bromo-4-ethyl-5,6,7,8-tetrahydro-4H-thieno[2,3-d]azepine]: the EC50 is below 100 nM.

With `Cc1sc2c3c1CCC3CNCC2` (racemic) [Example 38, (R,S)-2-Methyl-4,4a,5,6,7,8-hexahydro-3H-1-thia-6-aza-cyclopenta[cd]azulene], the EC50 was below 1000 nM.

As for `CC1CNCCc2sc(Br)c(Br)c21` (single isomer, unassigned) [32, Enantiomer 1], the EC50 is below 10000 nM.

With `CC1CNCCc2sc(Br)c(Br)c21` (single isomer, unassigned) [32, Enantiomer 2], the EC50 was below 100 nM.

`Cc1c(Br)sc2c1C(C)CNCC2` (single isomer, unassigned) [36, Enantiomer 1]: the EC50 is above 10000 nM.

Take `Cc1c(Br)sc2c1C(C)CNCC2` (single isomer, unassigned) [36, Enantiomer 2]: the EC50 was below 1000 nM.

On to `Brc1sc2c3c1CCC3CNCC2` (single isomer, unassigned) [37, Enantiomer 1], for which the EC50 was below 1000 nM.

With `Brc1sc2c3c1CCC3CNCC2` (single isomer, unassigned) [37, Enantiomer 2], the EC50 is below 100 nM.

As for `CC(C)(C)c1sc2c3c1CCC3CNCC2` (single isomer, unassigned) [39, Enantiomer 1], the EC50 was below 100 nM.

On to `CC(C)(C)c1sc2c3c1CCC3CNCC2` (single isomer, unassigned) [39, Enantiomer 2], for which the EC50 is below 10 nM.

Consider `Brc1cc2c(s1)CCNCC2` [Example 1, 2-Bromo-5,6,7,8-tetrahydro-4H-thieno[2,3-d]azepine], for which the EC50 was below 10 nM.

As for `Clc1cc2c(s1)CCNCC2` [Example 2, 2-Chloro-5,6,7,8-tetrahydro-4H-thieno[2,3-d]azepine], the EC50 is below 100 nM.

`Brc1sc2c(c1Br)CCNCC2` [Example 3, 2,3-Dibromo-5,6,7,8-tetrahydro-4H-thieno[2,3-d]azepine]: the EC50 was below 10 nM.

With `Clc1sc2c(c1Cl)CCNCC2` [Example 4, 2,3-Dichloro-5,6,7,8-tetrahydro-4H-thieno[2,3-d]azepine], the EC50 is below 10 nM.

Consider `Clc1c(Br)sc2c1CCNCC2` [Example 5, 2-Bromo-3-chloro-5,6,7,8-tetrahydro-4H-thieno[2,3-d]azepine], for which the EC50 was below 10 nM.

On to `FC(F)(F)Oc1ccc(-c2cc3c(s2)CCNCC3)cc1` [Example 6, 2-(4-Trifluoromethoxy-phenyl)-5,6,7,8-tetrahydro-4H-thieno[2,3-d]azepine], for which the EC50 is above 10000 nM.

Take `FC(F)(F)c1ccccc1-c1cc2c(s1)CCNCC2` [Example 7, 2-(2-Trifluoromethyl-phenyl)-5,6,7,8-tetrahydro-4H-thieno[2,3-d]azepine]: the EC50 is above 10000 nM.

`Fc1ccc(-c2cc3c(s2)CCNCC3)cc1` [Example 8, 2-(4-Fluoro-phenyl)-5,6,7,8-tetrahydro-4H-thieno[2,3-d]azepine]: the EC50 was below 10000 nM.

On to `Fc1ccc(-c2cc3c(s2)CCNCC3)cc1Cl` [Example 9, 2-(3-Chloro-4-fluoro-phenyl)-5,6,7,8-tetrahydro-4H-thieno[2,3-d]azepine], for which the concentration for a half-maximal effect (EC50) was above 10000 nM.

`Clc1ccc(Cl)c(-c2cc3c(s2)CCNCC3)c1` [Example 10, 2-(2,5-Dichloro-phenyl)-5,6,7,8-tetrahydro-4H-thieno[2,3-d]azepine]: the EC50 was above 10000 nM.

For the molecule `CCc1ccc(-c2cc3c(s2)CCNCC3)cc1` [Example 11, 2-(4-Ethyl-phenyl)-5,6,7,8-tetrahydro-4H-thieno[2,3-d]azepine], the EC50 was above 10000 nM.

For `COc1cccc(-c2cc3c(s2)CCNCC3)c1` [Example 12, 2-(3-Methoxy-phenyl)-5,6,7,8-tetrahydro-4H-thieno[2,3-d]azepine], the EC50 was below 10000 nM.

With `c1ccc(-c2cc3c(s2)CCNCC3)cc1` [Example 13, 2-Phenyl-5,6,7,8-tetrahydro-4H-thieno[2,3-d]azepine], the EC50 was below 10000 nM.

In the case of `Fc1cccc(Cl)c1Cc1cc2c(s1)CCNCC2` [Example 14, 2-(2-Chloro-6-fluoro-benzyl)-5,6,7,8-tetrahydro-4H-thieno[2,3-d]azepine], the EC50 was below 1000 nM.

For `Fc1cccc(Cl)c1Cc1sc2c(c1Br)CCNCC2` [Example 15, 3-Bromo-2-(2-chloro-6-fluoro-benzyl)-5,6,7,8-tetrahydro-4H-thieno [2,3-d]azepine], the EC50 is below 10000 nM.

For `Cc1c(Br)sc2c1CCNCC2` [Example 16, 2-Bromo-3-methyl-5,6,7,8-tetrahydro-4H-thieno[2,3-d]azepine], the EC50 was below 10 nM.

Regarding `COc1c(C)sc2c1CCNCC2` [Example 17, 3-Methoxy-2-methyl-5,6,7,8-tetrahydro-4H-thieno[2,3-d]azepine], the 50% effective concentration (EC50) was below 10 nM.

Consider `COc1c(Br)sc2c1CCNCC2` [Example 18, 2-Bromo-3-methoxy-5,6,7,8-tetrahydro-4H-thieno[2,3-d]azepine], for which the 50% effective concentration (EC50) was below 10 nM.

Turning to `COc1c(Cl)sc2c1CCNCC2` [Example 19, 2-Chloro-3-methoxy-5,6,7,8-tetrahydro-4H-thieno[2,3-d]azepine], the EC50 is below 1000 nM.

Turning to `C=C(C)c1sc2c(c1OC)CCNCC2` [Example 20, 2-Isopropenyl-3-methoxy-5,6,7,8-tetrahydro-4H-thieno[2,3-d]azepine], the EC50 was below 10 nM.

`Cc1c(C(C)(C)C)sc2c1CCNCC2` [Example 21, 2-tert-Butyl-3-methyl-5,6,7,8-tetrahydro-4H-thieno[2,3-d]azepine]: the concentration giving a half-maximal response (EC50) was below 100 nM.

For `COc1c(C(C)C)sc2c1CCNCC2` [Example 22, 2-Isopropyl-3-methoxy-5,6,7,8-tetrahydro-4H-thieno[2,3-d]azepine], the EC50 is below 10 nM.

Consider `Brc1cc2c(s1)C1(CC1)CNCC2` [Example 25, 2-Bromo-8-spirocyclopropyl-5,6,7,8-tetrahydro-4H-thieno[2,3-d]azepine], for which the EC50 is below 1000 nM.

`O=S(=O)(c1cc2c(s1)CCNCC2)N1CCCC1` [Example 26, 2-(Pyrrolidine-1-sulfonyl)-5,6,7,8-tetrahydro-4H-thieno[2,3-d]azepine]: the EC50 is below 10 nM.

As for `CN(C)S(=O)(=O)c1cc2c(s1)CCNCC2` [Example 27, 5,6,7,8-Tetrahydro-4H-thieno[2,3-d]azepine-2-sulfonic acid dimethylamide], the concentration giving a half-maximal response (EC50) was below 10 nM.

In the case of `Cc1c(S(=O)(=O)N(C)C)sc2c1CCNCC2` [Example 28, 3-Methyl-5,6,7,8-tetrahydro-4H-thieno[2,3-d]azepine-2-sulfonic acid dimethylamide], the EC50 was below 10 nM.

With `O=C(NC1CCCC1)c1cc2c(s1)CCNCC2` [Example 29, 5,6,7,8-Tetrahydro-4H-thieno[2,3-d]azepine-2-carboxylic acid cyclopentylamide], the EC50 was below 10000 nM.

Turning to `CN(C)C(=O)c1cc2c(s1)CCNCC2` [Example 30, 5,6,7,8-Tetrahydro-4H-thieno[2,3-d]azepine-2-carboxylic acid dimethylamide], the EC50 was below 1000 nM.

Turning to `CC1(C)CNCCc2cc(Br)sc21` [Example 34, 2-Bromo-8,8-dimethyl-5,6,7,8-tetrahydro-4H-thieno[2,3-d]azepine], the EC50 was below 10000 nM.

As for `FC(F)(F)c1cc2c(s1)CCNCC2` [Example 40, 2-Trifluoromethyl-5,6,7,8-tetrahydro-4H-thieno[2,3-d]azepine], the EC50 was below 10 nM.

On to `FC(F)(F)c1sc2c(c1Cl)CCNCC2` [Example 41, 3-Chloro-2-trifluoromethyl-5,6,7,8-tetrahydro-4H-thieno[2,3-d]azepine], for which the 50% effective concentration (EC50) is below 100 nM.

In the case of `FC(F)(F)c1sc2c(c1Br)CCNCC2` [Example 42, 3-Bromo-2-trifluoromethyl-5,6,7,8-tetrahydro-4H-thieno[2,3-d]azepine], the EC50 is below 10 nM.

In the case of `Cc1csc2c1CCNCC2` [Example 43, 3-Methyl-5,6,7,8-tetrahydro-4H-thieno[2,3-d]azepine], the concentration giving a half-maximal response (EC50) is below 1000 nM.

On to `COc1c(C(C)(C)C)sc2c1CCNCC2` [Example 44, 2-tert-Butyl-3-methoxy-5,6,7,8-tetrahydro-4H-thieno[2,3-d]azepine], for which the EC50 is below 10 nM.

Regarding `CC(C)(C)c1cc2c(s1)CCNCC2` [Example 45, 2-tert-Butyl-5,6,7,8-tetrahydro-4H-thieno[2,3-d]azepine], the EC50 is below 100 nM.

With `CC(C)(C)c1sc2c(c1Cl)CCNCC2` [Example 46, 2-tert-Butyl-3-chloro-5,6,7,8-tetrahydro-4H-thieno[2,3-d]azepine], the EC50 is below 100 nM.

As for `CC(C)(C)CC(C)(C)c1sc2c(c1Cl)CCNCC2` [Example 47, 3-Chloro-2-(1,1,3,3-tetramethyl-butyl)-5,6,7,8-tetrahydro-4H-thieno[2,3-d]azepine], the concentration for a half-maximal effect (EC50) was below 10000 nM.

Take `Clc1csc2c1CCNCC2` [Example 48, 3-Chloro-5,6,7,8-tetrahydro-4H-thieno[2,3-d]azepine]: the EC50 was below 10000 nM.
